pIC50, pKd: −log10 of the molar value. Where two headings read alike, the source gives them in different places.
How the values were obtained:
[1] = system: JAK1/TYK2 pSTAT5 (Tyr694/699) in THP-1 cell line; assay: IFNa-stimulated JAK1/TYK2 pSTAT5 (Tyr694/699) inhibition cellular assay, AlphaLISA; type: cell-based; conditions: Homo sapiens, THP-1 cells, AlphaLISA (Assay B)
Summary of the method: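 Compound dilutions were dispensed first, and HBSS-suspended THP-1 cells were added on top (final top concentration 10000 nM, 6-fold series). After 1 h at 37 °C, IFNa (100 ng/mL as added) was applied for 30 min. Cells were then lysed and pSTAT5 was quantified by AlphaLISA.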

TYK2 JH2 = target: T1, TYK2 JH2 (Homo sapiens, UniProt P29597); assay: TYK2 JH2 binding assay (KINOMEscan KdELECT competitive binding); conditions: TYK2 JH2 domain
T1 construct: purchased DiscoverX (KINOMEscan KdELECT service); host or cells: E. coli BL21-derived (T7 phage display) or HEK-293
T1 sequence (P29597 589-875 limits assumed): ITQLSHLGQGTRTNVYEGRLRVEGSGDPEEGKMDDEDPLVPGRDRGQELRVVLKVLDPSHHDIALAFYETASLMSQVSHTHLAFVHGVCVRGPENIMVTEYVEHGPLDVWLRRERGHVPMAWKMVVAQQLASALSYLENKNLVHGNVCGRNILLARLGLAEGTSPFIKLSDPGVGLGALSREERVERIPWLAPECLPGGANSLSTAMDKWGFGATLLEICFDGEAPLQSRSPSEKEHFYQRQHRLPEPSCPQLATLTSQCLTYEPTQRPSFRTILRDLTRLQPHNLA
Summary of the method: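 JH2-domain fragment, expressed as T7 phage tag in BL21-derived E. coli or DNA-tagged from HEK-293, competed with test compound against bead-immobilized biotinylated ligand in binding buffer (0.9% DMSO). 1 h shaking at room temperature; bound kinase eluted with 0.5 μM free ligand and quantified by qPCR. Kd from 11-point 3-fold dilutions.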

[2] = IFNa-stimulated, read-out: Cellular_THP1_IFNa-pSTATS_TYK2
[3] = KINOMEscan KdELECT (Assay A), read-out: Biochemical TYK2_DiscoverX_JH2_BND_Kd
[4] = IFNa-stimulated, read-out: Cellular THP1_IFNa-pSTATS_IC50
[5] = KINOMEscan KdELECT (Assay A), read-out: Biochemical TYK2_JH2_Kd
[6] = DiscoverX KINOMEscan KdELECT (Assay A), read-out: Biochemical TYK2_DiscoverX_JH2_BND_Kd
[7] = IFNa-stimulated pSTAT5 (Tyr694/699), read-out: Cellular_THP1_IFNa-pSTATS_TYK2

pIC50 [1, 2] | pKd (TYK2 JH2; [3]) | pKd (TYK2 JH2; [6]) | Structure (SMILES) | also measured
≥ 6.30 | ≥ 7.00 |  | CNc1ncc(-c2nc3cc(N4CC5(CCOCC5)C4)ccc3o2)c2cc(NC(=O)C3CC3)ncc12 [Example 934, N-(5-(5-(7-oxa-2-azaspiro[3.5]nonan-2-yl)benzo[d]oxazol-2-yl)-8-(methylamino)-2,7-napththyridin-3-yl)cyclopropanecarboxamide] | 
 |  |  | CNc1ncc(-c2nc3ccccc3o2)c2cc(NC(=O)C3CC3)ncc12 [Example 142, N-(5-(benzo[d]oxazol-2-yl)-8-(methylamino)-2,7-naphthyridin-3-yl)cyclopropanecarboxamide] | pIC50 [1, 4]: ≥ 6.30; pKd (TYK2 JH2; [5]): ≥ 7.00
≥ 6.30 |  | ≥ 7.00 | CNc1ncc(-c2nc3ccc(CO)cc3o2)c2cc(NC(=O)C3CC3)ncc12 [Example 254, N-(5-(6-(hydroxymethyl)benzo[d]oxazol-2-yl)-8-(methylamino)-2,7-naphthyridin-3-yl)cyclopropanecarboxamide] | 
≥ 6.30 | ≥ 7.00 |  | CNc1ncc(-c2ccc(Oc3ncn(C)n3)cc2)c2cc(NC(=O)C3CC3)ncc12 [Example 865, N-(5-(4-((1-methyl-1H-1,2,4-triazol-3-yl)oxy)phenyl)-8-(methylamino)-2,7-naphthyridin-3-yl)cyclopropanecarboxamide] | 
≥ 6.30 |  | ≥ 7.00 | CNc1ncc(-c2nc3cc(N4C[C@@H]5C[C@H]4CO5)ccc3o2)c2cc(NC(=O)C3CC3)ncc12 [Example 298, N-(5-(5-((15,4S)-2-oxa-5-azabicyclo[2.2.1]heptan-5-yl)benzo[d]oxazol-2-y1)-8-(methylamino)-2,7-naphthyridin-3-yl)cyclopropanecarboxamide] | 
 | ≥ 7.00 |  | CNc1ncc(-c2nc3ccc(C4CCOCC4)cn3n2)c2cc(NC(=O)C3CC3)ncc12 [Example 1035] | pIC50 [1, 7]: ≥ 6.30
 | ≥ 7.00 |  | CNc1ncc(C#Cc2ccc(-n3ccccc3=O)cc2)c2cc(NC(=O)C3(F)CC3)ncc12 [Example 1138, 1-fluoro-N-(8-(methylamino)-5-((4-(2-oxopyridin-1(2H)-yl)Phenyl)ethynyl)-2,7-naphthyridin-3-yl)cyclopropanecarboxamide] | pIC50 [1, 7]: ≥ 6.30
≥ 6.30 | ≥ 7.00 |  | CNc1ncc(C#Cc2ccc3c(c2)OC[C@H](COC)O3)c2cc(NC(=O)C3CC3)ncc12 (single isomer, unassigned) [Example 698] | 
≥ 6.30 | ≥ 7.00 |  | CNc1ncc(C#Cc2ccc3nc4n(c3c2)CCC=C4)c2cc(NC(=O)C3CC3)ncc12 [Example 808, N-(5-((1,2-dihydrobenzo[4,5]imidazo[1,2-a]pyridin-8-yl)ethynyl)-8-(methylamino)-2,7-naphthyridin-3-yl)cyclopropanecarboxamide] | 
≥ 6.30 |  | ≥ 7.00 | [2H]C([2H])([2H])Oc1ccc2oc(-c3cnc(NC)c4cnc(NC(=O)C5CC5)cc34)nc2c1 [Example 195, N-(5-(5-(methoxy-d3)benzo[d]oxazol-2-yl)-8-(methylamino)-2,7-naphthyridin-3-yl)cyclopropanecarboxamide] | 
≥ 6.30 |  | ≥ 7.00 | CNc1ncc(-c2nc3cc(N4CC5(CN(C(C)=O)C5)C4)ccc3o2)c2cc(NC(=O)C3CC3)ncc12 [Example 322, N-(5-(5-(6-acetyl-2,6-diazaspiro[3.3]heptan-2-yl)benzo[d]oxazol-2-yl)-8-(methylamino)-2,7-naphthyridin-3-yl)cyclopropanecarboxamide] | 
≥ 6.30 | ≥ 7.00 |  | CNc1ncc(C#Cc2ccc3nnn(C)c3c2)c2cc(NC(=O)C3CC3)nnc12 [Example 882, N-(5-((1-methyl-1H-benzo[d][1,2,3]triazol-6-yl)ethynyl)-8-(methylamino)pyrido[3,4-c]pyridazin-3-yl)cyclopropanecarboxamide] | 
 | ≥ 7.00 |  | CNc1ncc(-c2nc3cc(N4CCO[C@@H](C(F)F)C4)ccc3o2)c2cc(NC(=O)[C@H]3C[C@H]3C)ncc12 [Example 1059] | pIC50 [1, 7]: ≥ 6.30
 | ≥ 7.00 |  | CNc1ncc(-c2nc3ccc(N4CCOCC4)cn3n2)c2cc(Nc3ccc(C(F)(F)F)cn3)ncc12 [Example 1090, N1-methyl-4-(6-morpholino-[1,2,4]triazolo[1,5-a]pyridin-2-yl)-N6-[5-(trifluoromethyl)-2-pyridyl]-2,7-naphthyridine-1,6-diamine] | pIC50 [1, 7]: < 6.30
≥ 6.30 |  | ≥ 7.00 | CNc1ncc(-c2nc3cc(N4CCC[C@@H](C#N)C4)ccc3o2)c2cc(NC(=O)C3CC3)ncc12 [Example 292, (R)-N-(5-(5-(3-cyanopiperidin-1-yl)benzo[d]oxazol-2-y1)-8-(methylamino)-2,7-naphthyridin-3-yl)cyclopropanecarboxamide] | 
≥ 6.30 |  | ≥ 7.00 | CNc1ncc(-c2nc3cc(OC4CN(C(=O)OC(C)(C)C)C4)ccc3o2)c2cc(NC(=O)C3CC3)ncc12 [Example 196, tert-butyl 3-((2-(6-(cyclopropanecarboxamido)-1-(methylamino)-2,7-naphthyridin-4-yl)benzo[d]oxazol-5-yl)oxy)azetidine-1-carboxylate] | 
≥ 6.30 |  | ≥ 7.00 | CNc1ncc(-c2nc3cc(OC)ccc3o2)c2cc(NC(=O)[C@@H]3C[C@H]3C)ncc12 (racemic) [Example 382, N-(5-(5-methoxybenzo[d]oxazol-2-yl)-8-(methylamino)-2,7-naphthyridin-3-y1)-2-methylcyclopropane-1~carboxamide] | 
≥ 6.30 |  | ≥ 7.00 | CNc1ncc(-c2nc3ccc(N4CCO[C@H](C)C4)cn3n2)c2cc(NC(=O)NC3CC3)ncc12 [Example 552, (R)-1-cyclopropyl-3-(8-(methylamino)-5-(6-(2-methylmorpholino)-[1,2,4]triazolo[1,5-a]pyridin-2-yl)-2,7-naphthyridin-3-yl)urea] | 
 | ≥ 7.00 |  | CNc1ncc(-c2nc3ccc(N4CCO[C@@H](C(C)(C)O)C4)cn3n2)c2cc(NC(=O)C3CC3)ncc12 [Example 1027] | pIC50 [1, 7]: ≥ 6.30
≥ 6.30 |  | ≥ 7.00 | CNc1ncc(-c2nc3cc(-c4ncn(C)n4)ccc3o2)c2cc(NC(=O)C3CC3)ncc12 [Example 464, N-(5-(5-(1-methyl-1H-1,2,4-triazol-3-yl)benzo[d]oxazol-2-yl)-8-(methylamino)-2,7-naphthyridin-3-yl)cyclopropanecarboxamide] | 
≥ 6.30 |  | ≥ 7.00 | CNc1ncc(-c2nc3ccc(OCC4CC4)cn3n2)c2cc(NC(=O)C3CC3)ncc12 [Example 495, N-(5-(6-(cyclopropylmethoxy)-[1,2,4]triazolo[1,5-a]pyridin-2-yl)-8-(methylamino)-2,7-naphthyridin-3-yl)cyclopropanecarboxamide] | 
≥ 6.30 | ≥ 7.00 |  | CNc1ncc(C#Cc2cnco2)c2cc(NC(=O)C3CC3)ncc12 [Example 600, N-(8-(methylamino)-5-(oxazol-5-ylethynyl)-2,7-naphthyridin-3-yl)cyclopropanecarboxamide] | 
< 6.30 |  | ≥ 7.00 | CNc1ncc(-c2nc3cc(OC)ccc3o2)c2cc(NC(=O)CC(C)(O)CO)ncc12 (centres unmarked) [Example 402, 3,4-dihydroxy-N-(5-(5-methoxybenzo[d]oxazol-2-yl)-8-(methylamino)-2,7-naphthyridin-3-yl)-3-methylbutanamide] | 
≥ 6.30 | ≥ 7.00 |  | CNc1ncc(C#Cc2ccc3nc(COC)n(C)c3c2)c2cc(NC(=O)C3CC3)ncc12 [Example 692, N-(5-((2-(methoxymethyl)-1-methyl-1H-benzoimidazol-6-yl)ethynyl)-8-(methylamino)-2,7-naphthyridin-3-yl)cyclopropanecarboxamide] | 
 | ≥ 7.00 |  | [2H]C([2H])(C)Nc1ncc(-c2nc3ccc(N4CCOCC4)cn3n2)c2cc(NC(=O)[C@H]3C[C@H]3C)ncc12 [Example 1095, (1S,2R)—N-(8-((ethyl-1,1-d2)amino)-5-(6-morpholino-[1,2,4]triazolo[1,5-a]pyridine-2-yl)-2,7-naphthyridin-3-yl)-2-methylcyclopropane-1-carboxamide] | pIC50 [1, 7]: ≥ 6.30
 |  |  | CNc1ncc(-c2ccncn2)c2cc(NC(=O)C3CC3)ncc12 [Example 50, N-(8-(methylamino)-5-(pyrimidin-4-yl)-2,7-naphthyridin-3-yl)cyclopropanecarboxamide] | pIC50 [1, 4]: < 6.30; pKd (TYK2 JH2; [5]): ≥ 7.00
 | ≥ 7.00 |  | CNc1ncc(-c2nc3ccc(N4CCOCC4)cn3n2)c2cc(NC(=O)C3CC3(F)F)ncc12 (centres unmarked) [Example 1071, 2,2-difluoro-N-(8-(methylamino)-5-(6-morpholino-[1,2,4]triazolo[1,5-a]pyridin-2-yl)-2,7-naphthyridin-3-yl)cyclopropane-1-carboxamide] | pIC50 [1, 7]: ≥ 6.30
≥ 6.30 | ≥ 7.00 |  | CNc1ncc(-c2nc3cc(OC)ccc3o2)c2cc(NC(=O)C3CC3)nnc12 [Example 888, N-(5-(5-methoxybenzo[d]oxazol-2-yl)-8-(methylamino)pyrido[3,4-c]pyridazin-3-yl)cyclopropanecarboxamide] | 
